Laboratory results: article PMC3128435 (Journal of physics. Condensed matter : an Institute of …, 2010)

Biological target: maltoporin (Escherichia coli, UniProt P02943)
Experiment: single-channel current blockage in planar lipid bilayer
Type: binding
Settings: 1.0 M NaCl, pH 7, 150 mV, 23 °C

maltoporin, sequence (P02943 26-446): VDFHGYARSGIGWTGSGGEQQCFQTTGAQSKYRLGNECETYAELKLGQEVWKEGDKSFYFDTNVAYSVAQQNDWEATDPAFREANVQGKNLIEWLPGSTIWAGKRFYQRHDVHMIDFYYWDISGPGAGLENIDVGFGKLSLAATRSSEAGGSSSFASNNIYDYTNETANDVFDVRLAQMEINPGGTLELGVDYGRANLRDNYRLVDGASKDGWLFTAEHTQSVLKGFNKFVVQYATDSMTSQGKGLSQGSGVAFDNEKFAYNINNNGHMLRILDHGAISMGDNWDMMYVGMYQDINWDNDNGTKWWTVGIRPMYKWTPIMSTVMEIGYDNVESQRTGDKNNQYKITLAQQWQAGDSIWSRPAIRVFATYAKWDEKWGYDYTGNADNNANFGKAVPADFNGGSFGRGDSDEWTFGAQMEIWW

SMILES | average lifetime of the channel complex (cis-side addition) | average lifetime of the channel complex
OC[C@H]1O[C@@H]2O[C@H]3[C@H](O)[C@@H](O)[C@@H](O[C@H]4[C@H](O)[C@@H](O)[C@@H](O[C@H]5[C@H](O)[C@@H](O)[C@@H](O[C@H]6[C@H](O)[C@@H](O)[C@@H](O[C@H]7[C@H](O)[C@@H](O)[C@@H](O[C@H]8[C@H](O)[C@@H](O)[C@@H](O[C@H]1[C@H](O)[C@H]2O)O[C@@H]8CO)O[C@@H]7CO)O[C@@H]6CO)O[C@@H]5CO)O[C@@H]4CO)O[C@@H]3CO [CD, β-cyclodextrin] | 7.3 ± 0.5 ms | –
OC[C@H]1O[C@H](O[C@H]2[C@H](O)[C@@H](O)[C@@H](O[C@H]3[C@H](O)[C@@H](O)[C@@H](O[C@H]4[C@H](O)[C@@H](O)[C@@H](O[C@H]5[C@H](O)[C@@H](O)[C@@H](O[C@H]6[C@H](O)[C@@H](O)[C@@H](O[C@H]7[C@H](O)[C@@H](O)C(O)O[C@@H]7CO)O[C@@H]6CO)O[C@@H]5CO)O[C@@H]4CO)O[C@@H]3CO)O[C@@H]2CO)[C@H](O)[C@@H](O)[C@@H]1O (some centres unmarked) [m7, maltoheptaose] | – | 2.0 ± 0.3 ms
